The subject of the experiment is L1210 leukemia ip in BDF1 mice, survival T/C. Put plainly: NCI In Vivo Anticancer Drug Screen. Data for tumor model L1210 Leukemia (intraperitoneal) in B6D2F1 (BDF1) mice. Particulars: endpoint: mean survival time, higher = longer survival. A digest of the protocol: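 Antitumor effect is assessed in tumor-bearing animals. Survival in the compound arm is compared with a vehicle-dosed control arm and expressed as their quotient.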

The mark [1] stands for this setting: dose: 100.0 mg/kg/injection, schedule: Q04DX003 (ip), vehicle: Klucel (hydroxypropylcellulose) (HPC).
[2] abbreviates: dose: 200.0 mg/kg/injection, schedule: Q04DX003 (ip), vehicle: Klucel (hydroxypropylcellulose) (HPC).
[3] abbreviates: dose: 400.0 mg/kg/injection, schedule: Q04DX003 (ip), vehicle: Klucel (hydroxypropylcellulose) (HPC).
[4] abbreviates: dose: 100.0 mg/kg/injection, schedule: Q04DX003 (ip), vehicle: saline with Tween-80.
The mark [5] stands for this setting: dose: 200.0 mg/kg/injection, schedule: Q04DX003 (ip), vehicle: saline with Tween-80.
[6] abbreviates: dose: 400.0 mg/kg/injection, schedule: Q04DX003 (ip), vehicle: saline with Tween-80.
[7] abbreviates: dose: 100.0 mg/kg/injection, schedule: Q01DX001 (ip), vehicle: carboxymethylcellulose (CMC).
The mark [8] stands for this setting: dose: 200.0 mg/kg/injection, schedule: Q01DX001 (ip), vehicle: carboxymethylcellulose (CMC).

“And” between values parts separate entries of the source, which are not always exact repeats. Identical values can stand only once. Inconclusive results and toxic doses are left out.

As to `O=C(NC1CCC(NC(=O)N2CC2)CC1)N1CC1` (stereo not given), the T/C was 116 % of control (dose: 0.12 mg/kg/injection, schedule: Q01DX009 (ip), vehicle: carboxymethylcellulose (CMC)); 120 % of control (dose: 0.29 mg/kg/injection, schedule: Q01DX009 (ip), vehicle: carboxymethylcellulose (CMC)); 164 % of control (dose: 0.8 mg/kg/injection, schedule: Q01DX009 (ip), vehicle: carboxymethylcellulose (CMC)); 118 % of control (dose: 1.0 mg/kg/injection, schedule: Q01DX009 (ip), vehicle: carboxymethylcellulose (CMC)); 164 % of control (dose: 1.2 mg/kg/injection, schedule: Q01DX009 (ip), vehicle: carboxymethylcellulose (CMC)); 114 % of control and 115 % of control (dose: 1.3 mg/kg/injection, schedule: Q01DX001 (ip), vehicle: carboxymethylcellulose (CMC)). In addition, the T/C (dose: 1.3 mg/kg/injection, schedule: Q01DX009 (ip), vehicle: carboxymethylcellulose (CMC)) was 94 % of control; the T/C (dose: 1.8 mg/kg/injection, schedule: Q01DX009 (ip), vehicle: carboxymethylcellulose (CMC)) was 170 % of control; the T/C (dose: 2.0 mg/kg/injection, schedule: Q01DX001 (ip), vehicle: carboxymethylcellulose (CMC)) is 112 % of control and 123 % of control; the T/C (dose: 2.0 mg/kg/injection, schedule: Q01DX009 (ip), vehicle: carboxymethylcellulose (CMC)) was 94 % of control; the T/C (dose: 2.5 mg/kg/injection, schedule: Q01DX009 (ip), vehicle: carboxymethylcellulose (CMC)) was 120 % of control; the T/C (dose: 3.0 mg/kg/injection, schedule: Q01DX001 (ip), vehicle: carboxymethylcellulose (CMC)) was 119 % of control. The T/C is, setting by setting: (dose: 3.37 mg/kg/injection, schedule: Q01DX009 (ip), vehicle: carboxymethylcellulose (CMC)) 97 % of control; (dose: 4.5 mg/kg/injection, schedule: Q01DX001 (ip), vehicle: carboxymethylcellulose (CMC)) 151 % of control.

In the case of `O=C(OCCCCCCCOC(=O)c1cccc([N+](=O)[O-])c1)c1cccc([N+](=O)[O-])c1`, the T/C is 98 % of control (dose: 100.0 mg/kg/injection, schedule: Q01DX001 (ip), vehicle: other); 101 % of control (dose: 200.0 mg/kg/injection, schedule: Q01DX001 (ip), vehicle: other); 107 % of control (dose: 400.0 mg/kg/injection, schedule: Q01DX001 (ip), vehicle: other).

Turning to `CCCCCCCCCCCCCCCCOc1ccc(CC)cc1`, under setting [1], the T/C was 91 % of control.

Turning to `CN(C)NCC(O)COc1ccc(Cl)cc1` (stereo not given), the T/C is 103 % of control (dose: 100.0 mg/kg/injection, schedule: Q04DX002 (ip), vehicle: Klucel (hydroxypropylcellulose) (HPC)) and 100 % of control (dose: 200.0 mg/kg/injection, schedule: Q04DX002 (ip), vehicle: Klucel (hydroxypropylcellulose) (HPC)).

In the case of `CCOC(=O)Cc1ccc2c(c1)sc(=S)n2C`, the T/C under setting [1] is 96 % of control, the T/C under setting [2] is 87 % of control and the T/C under setting [3] was 92 % of control.

Turning to `Cc1ccc(C(=O)CC(C(=O)c2ccccc2)c2ccccc2)cc1` (stereo not given), the T/C (dose: 75.0 mg/kg/injection, schedule: Q01DX009 (ip), vehicle: Klucel (hydroxypropylcellulose) (HPC)) is 92 % of control; the T/C under setting [1] was 94 % of control; the T/C (dose: 150.0 mg/kg/injection, schedule: Q01DX009 (ip), vehicle: Klucel (hydroxypropylcellulose) (HPC)) was 95 % of control; the T/C under setting [2] was 104 % of control; the T/C (dose: 300.0 mg/kg/injection, schedule: Q01DX009 (ip), vehicle: Klucel (hydroxypropylcellulose) (HPC)) was 95 % of control; the T/C under setting [3] was 98 % of control.

Consider `C1CCC2[N-]CC3CCCCC3[N-]CC3CCCCC3[N-]CC3CCCCC3[N-]CC2C1.[Cu]` (stereo not given), for which the T/C is 110 % of control (dose: 20.0 mg/kg/injection, schedule: Q01DX001 (ip), vehicle: Klucel (hydroxypropylcellulose) (HPC)); 117 % of control (dose: 40.0 mg/kg/injection, schedule: Q01DX001 (ip), vehicle: Klucel (hydroxypropylcellulose) (HPC)); 116 % of control (dose: 100.0 mg/kg/injection, schedule: Q01DX001 (ip), vehicle: Klucel (hydroxypropylcellulose) (HPC)).

For `O=C1Nc2ccccc2/C1=C/c1cccnc1`, the T/C runs as follows: (dose: 50.0 mg/kg/injection, schedule: Q01DX Z (ip), vehicle: carboxymethylcellulose (CMC)) 97 % of control; (dose: 100.0 mg/kg/injection, schedule: Q01DX Z (ip), vehicle: carboxymethylcellulose (CMC)) 111 % of control; (dose: 200.0 mg/kg/injection, schedule: Q01DX Z (ip), vehicle: carboxymethylcellulose (CMC)) 94 % of control; (dose: 400.0 mg/kg/injection, schedule: Q01DX Z (ip), vehicle: carboxymethylcellulose (CMC)) 95 % of control.

As for `O=C(Nc1ccccc1)SCCSC(=O)Nc1ccccc1`, the T/C (dose: 100.0 mg/kg/injection, schedule: Q01DX001 (ip), vehicle: saline with Tween-80) is 88 % of control; the T/C under setting [4] was 97 % of control; the T/C (dose: 200.0 mg/kg/injection, schedule: Q01DX001 (ip), vehicle: saline with Tween-80) is 88 % of control; the T/C under setting [5] was 88 % of control; the T/C (dose: 400.0 mg/kg/injection, schedule: Q01DX001 (ip), vehicle: saline with Tween-80) is 90 % of control; the T/C under setting [6] was 87 % of control.

Take `Nc1nc(N)c2nc(CNc3ccc(Cl)c(Cl)c3)cnc2n1`: the T/C runs as follows: (dose: 1.0 mg/kg/injection, schedule: Q01DX009 (ip), vehicle: saline) 103 % of control; (dose: 2.0 mg/kg/injection, schedule: Q01DX009 (ip), vehicle: saline) 101 % of control; (dose: 4.0 mg/kg/injection, schedule: Q01DX009 (ip), vehicle: saline) 94 % of control; (dose: 4.0 mg/kg/injection, schedule: Q04DX003 (ip), vehicle: saline) 90 % of control; (dose: 8.0 mg/kg/injection, schedule: Q01DX009 (ip), vehicle: saline) 90 % of control; (dose: 8.0 mg/kg/injection, schedule: Q04DX003 (ip), vehicle: saline) 100 % of control. Moreover, the T/C (dose: 16.0 mg/kg/injection, schedule: Q01DX009 (ip), vehicle: saline) is 87 % of control; the T/C (dose: 16.0 mg/kg/injection, schedule: Q04DX003 (ip), vehicle: saline) is 92 % of control; the T/C (dose: 32.0 mg/kg/injection, schedule: Q04DX003 (ip), vehicle: saline) is 97 % of control; the T/C (dose: 64.0 mg/kg/injection, schedule: Q04DX003 (ip), vehicle: saline) was 89 % of control.

On to `CNCC(O)c1ccc(O)cc1` (stereo not given), for which the T/C by setting is: (dose: 25.0 mg/kg/injection, schedule: Q01DX009 (ip), vehicle: saline) 96 % of control; (dose: 25.0 mg/kg/injection, schedule: Q04DX003 (ip), vehicle: saline) 111 % of control; (dose: 50.0 mg/kg/injection, schedule: Q01DX009 (ip), vehicle: saline) 105 % of control; (dose: 50.0 mg/kg/injection, schedule: Q04DX003 (ip), vehicle: saline) 101 % of control; (dose: 100.0 mg/kg/injection, schedule: Q01DX009 (ip), vehicle: saline) 98 % of control; (dose: 100.0 mg/kg/injection, schedule: Q04DX003 (ip), vehicle: saline) 90 % of control and 101 % of control. Moreover, the T/C by setting is: (dose: 200.0 mg/kg/injection, schedule: Q01DX009 (ip), vehicle: saline) 98 % of control; (dose: 200.0 mg/kg/injection, schedule: Q04DX003 (ip), vehicle: saline) 88 % of control and 104 % of control; (dose: 400.0 mg/kg/injection, schedule: Q01DX009 (ip), vehicle: saline) 100 % of control; (dose: 400.0 mg/kg/injection, schedule: Q04DX003 (ip), vehicle: saline) 98 % of control and 120 % of control.

As to `c1ccn2nncc2c1`, the T/C under setting [7] was 103 % of control and the T/C under setting [8] was 90 % of control.

As to `CNc1ccc(/C=C2\C=Cc3ccccc32)cc1I`, the T/C is 95 % of control under setting [7]; 95 % of control under setting [8]; 101 % of control (dose: 400.0 mg/kg/injection, schedule: Q01DX001 (ip), vehicle: carboxymethylcellulose (CMC)).

On to `CC(=O)Oc1cccc(C#N)c1`, for which the T/C under setting [4] was 98 % of control, the T/C under setting [5] is 107 % of control and the T/C under setting [6] was 98 % of control.
